The results in this text go back to patent publication US8492348B2, “Methods of increasing cerebral blood flow” (The Board of Trustees of the Leland Stanford Junior …, priority 2005, dated 2013).

Assay [1] relates to rats subjected to ischemic/reperfusion injury. The assay is described as follows: Cerebral blood flow after repeated intraperitoneal administrations (Example 2). The format is in vivo. From the text:
(§1) Ischemia and reperfusion were induced in male Sprague-Dawley rats using an occluding intraluminal suture as described in Maier, et al., J. Neurosurg. 94(1):90-96 (2001). Briefly, an uncoated 30 mm long segment of 3-0 nylon monofilament suture with the tip rounded by a flame was inserted into the stump of the external carotid artery and advanced into the internal carotid artery 19-20 mm from the bifurcation to occlude the ostium of the middle cerebral artery (MCA). Following placement of the suture, the wound was closed and animals were placed back in cages for a period of two hours. Following this period, animals were reanestheized and the suture was withdrawn to allow reperfusion of the brain.
Immediately following reperfusion, the rats were placed in a stereotaxic frame, and a burr hole was drilled through the skull 1 mm posterior and 6 mm lateral to the bregma on the ipsilateral hemisphere corresponding to the ischemic territory. Cerebral blood flow (CBF) was measured via this burr hole using a laser Doppler probe controlled by a micromanipulator (Laserflo BPM403A laser-Doppler flowmeter, Vasamedic, St. Paul, Minn.). The display is digital only, collects eight data points per second, and was set to give a moving average of data every 0.1 sec. […] CBF readings began at 30 minutes from the onset of reperfusion. […]

Assay [2] deals with rats subjected to ischemic/reperfusion injury by middle cerebral artery (MCA) occlusion. Nature of the assay: Transmission electron microscopy of brain tissue, ischemic penumbra, after MCA occlusion (Example 3). The assay is classed as in vivo, Sprague-Dawley rats. Conditions: for number of vessels per field (patent microvessels): 120 min MCA occlusion, 4 hrs reperfusion, 0.2 mg/kg bolus intraperitoneal at onset of reperfusion, 1200x fields, n=4, FIG. 5. As to the method: Sprague-Dawley rats underwent 120 minutes MCA occlusion, followed by 4 hrs of reperfusion. Rats were treated with either TAT or δV1-1-TAT peptides at the onset of reperfusion by bolus intraperitoneal injection (0.2 mg/kg in 1 mL, n=4 per group). […] Following the reperfusion period, rats were heavily anesthetized using isoflurane, and underwent transcardial perfusion using 0.7% NaCl/PBS followed by 4% formaldehyde in 0.7% NaCl/PBS.
Brains were removed and kept at 4° C. overnight in 2% formaldehyde/2% glutaraldehyde in 0.1M sodium cacodylate buffer, pH 7.3, Brain sections (˜1 mm^3) were then dissected from the cortical surface, at ˜1 mm anterior/˜6 mm lateral to bregma on the ipsilateral cortex (corresponding to the area measured by laser Doppler flowmetry). Tissue was post-fixed in 1% osmium tetroxide for 1 hr, washed with water, and stained in 1% uranyl acetate solution. Tissue was dehydrated using an ethanol gradient followed by 100% propylene oxide, and infiltrated with Epon and Embed 812 medium, placed in molds, and polymerized overnight at 65° C. before slicing. Sections (75 and 90 nm) were picked up on formvar/Carbon coated Cu grids, stained for 15 seconds in 1:1 Super-saturated uranyl acetate (7.7%) in acetone followed by staining in 0.2% lead citrate for 3 to 4 minutes (all reagents from Electron Microscopy Sciences, PA).
To quantitate number of patent vessels, 10-15 non-overlapping fields (1200× magnification) were photographed from 2-3 slices taken from each animal. Vessels were identified and counted if lumen and endothelial lining was apparent; vessels were confirmed by scanning over these fields at higher magnification. Assessments of vessel count were performed by an observer blinded to treatment group. The number of vessels per field was then averaged for each group of animals (n=4 per group). Statistical differences between groups were analyzed using an unpaired t-test. Higher magnification images (5000-15000×) were taken to assess microvascular morphology.

Assay [3] shares this test system. The assay is described as follows: Cerebral blood flow by laser Doppler flowmetry after single intraperitoneal bolus (Example 1). The assay is classed as in vivo, Sprague-Dawley rats. Conditions: bolus intraperitoneal delivery.
Excerpt: Male Sprague-Dawley rats (280-320g; n=8) were used for cerebral ischemia and reperfusion, and subsequent monitoring of cerebral blood flow. Tat or δV1-1 peptides were synthesized and conjugated via a Cys S—S bond as described previously (Chen, et al., Proc. Natl. Acad. Sci. USA 25(20):11114-11119 (2001); Inagaki, et al., Circulation 11(108):2304-2307 (2003)). Rats were sacrificed by overdose of isoflurane immediately following procedure
as §1
Immediately following reperfusion, the rats were placed in a stereotaxic frame, and a burr hole was drilled through the skull 1 mm posterior and 6 mm lateral to the bregma on the ipsilateral hemisphere corresponding to the ischemic territory. Cerebral blood flow (CBF) was measured via this burr hole using a laser Doppler probe controlled by a micromanipulator (Laserflo BPM403A laser-Doppler flowmeter, Vasamedic, St. Paul, Minn.). The display is digital only, collects eight data points per second, and was set to give a moving average of data every 0.1 sec. (Perez-Pinzon, et al., J. Neurolog. Sci. 153 (1):25-31 (1997); Borlongan, et al., Brain Res. 1010(1-2):108-116 (2004)). CBF readings began at 30 minutes from the onset of reperfusion. Following a period of 20-30 minutes to establish baseline CBF, a δPKC inhibitor, the δV1-1 peptide (which was conjugated to Tat for delivery), was injected by intraperitoneal bolus, and blood flow was monitored for an additional 20-30 minutes.

The mark [4] stands for this setting: rats subjected to ischemic/reperfusion injury (2 h MCA occlusion), within 30 minutes, FIG. 2.
Setting [5] is: sham (non-stroked) rats, within 30 minutes of delivery, FIG. 1.

On to SFNSYELGSL [δV1-1-TAT], for which the “desensitization to the inhibitor” value in assay [1] (ischemic/reperfusion rats treated multiple times) is reported as “did not become desensitized”. For the same sequence, the “cerebral blood flow (CBF)” value is reported as “further increased blood flow” in assay [1] (ischemic/reperfusion rats, repeated intraperitoneal administrations, FIG. 3); “increased cerebral blood flow” in assay [3] (setting [4]); “no change in blood flow” in assay [3] (setting [5]). Further, the “number of vessels per field (patent microvessels)” value in assay [2] came out at 3.1±0.6 vessels/field. For the same sequence, the “microvascular structure (higher magnification TEM)” value in assay [2] (ischemic animals, 0.2 mg/kg at reperfusion only, FIGS. 4F, 4I, 4L) is recorded as “significantly less damaged”.
On to YGRKKRRQRRR [TAT, reference compound], for which the “number of vessels per field (patent microvessels)” value in assay [2] stood at 1.6±0.6 vessels/field. Moreover, the “cerebral blood flow (CBF)” value in assay [3] (setting [4]) and in assay [3] (setting [5]) was “no effect on CBF” each time.
